Assay results reported in patent publication US10632106B2, “Methods of cancer treatment with 2-(1′H-Indole-3′-carbonyl)-thiazole-4-carboxylic acid methyl ester” (Ariagen, Inc., priority 2009, dated 2020).

Test system: human prostate cancer cell line LNCaP xenografts
Assay: LNCaP xenograft growth inhibition in nude mice
Format: in vivo
Conditions: for TGI (Tumor Growth Inhibition): TGI=ΔT/ΔC×100%
Experimental: All the procedures related to animal handling, care, and the treatment in the study were performed following guidelines approved by an Institutional Animal Care and Use Committee (IACUC) of Crown Bioscience, Inc. (Santa Clara, Calif., USA, a contract research organization we hired) based on the guidance of the Association for Assessment and Accreditation of Laboratory Animal Care (AAALAC). Animals were checked for any effects of tumor growth and drug treatment on normal behavior such as mobility, food and water consumption, body weight gain/loss (gross body weights were measured twice weekly), eye/hair matting, and any other abnormal effect. Death and observed clinical signs were recorded on the basis of the number of animals within each group. Individual animals with a tumor volume exceeding 3,000 mm^3 or animals of a group with a mean tumor volume exceeding 2,000 mm^3 were euthanized. In addition, animals showing signs of severe distress and/or pain, dropping body weight more than 20% from that at the start of treatment, or losing the capability of accessing adequate food or water were humanely sacrificed.
The human prostate cancer cell line LNCaP (ATCC, American Type Culture Collection, Manassas, Va., USA) were maintained in vitro as monolayer culture in RPMI-1640 medium supplemented with 10% fetal bovine serum (FBS), 100 U/ml penicillin, 100 μg/ml streptomycin, and 2 mM L-glutamine at 37° C. in an atmosphere of 5% CO2 in air. The tumor cells were routinely subcultured twice a week. The cells growing in an exponential phase were harvested and counted for tumor inoculation.
Each mouse was inoculated subcutaneously at the right flank with the LNCaP cells (1×10^7) in 0.1 ml of PBS for tumor development. When a mean tumor volume reached around 150 mm^3, the tumor-bearing mice were divided into homogeneous blocks based on their tumor volumes followed by a randomization of mice in each block into treatment groups (thus minimizing variations in tumor response to treatments due to the differential in initial mean tumor volumes). Each treatment group was consisted of 8 tumor-bearing mice. Vehicle (DMSO) or ITE in the vehicle at specified doses were administered to the mice by either i.p. (intraperitoneal) or p.o. (oral) injection once or twice daily for 28 continuous days as indicated.
Tumor volume was measured twice weekly in two dimensions using a caliper and the volume was calculated with a formula of: V=0.5 a×b^2, where a and b are the long and short diameter (in mm) of a tumor, respectively. The tumor volume was then used for calculations of both TGI (Tumor Growth Inhibition) and TGD (Tumor Growth Delay). The TGI was determined by: TGI=ΔT/ΔC×100%, where ΔT was a difference between the mean tumor volume at a specified day of observation and that at the day treatment starts (day 1) for a drug treated group whereas ΔC was the same difference measured for the control group. The TGD was calculated as: TGD=T−C, where T was the time (in days) required for tumors in a drug treated group to reach a predetermined mean tumor volume and C the time (in days) in the control group to reach the same volume. A tumor weight was derived by equating 1,000 mm^3 in volume to 1,000 mg in weight. A net body weight was then derived by subtracting a tumor weight from a corresponding gross body weight with the tumor.
Summary statistics, including mean and the standard error of the mean (SEM), are provided for the tumor volume of each group at each time point. Statistical analysis of difference in tumor volume among groups was conducted on a data set either at the best therapeutic time point or at the final dosing day as indicated. The tumor volume data were log-transformed and evaluated using a one-way ANOVA followed by Tukey's test when significance was observed. All data were analyzed using SPSS 16.0 and p<0.05 was considered to be statistically significant.

Compound: COC(=O)c1csc(C(=O)c2c[nH]c3ccccc23)n1 [ITE, 2-(1′H-indole-3′-carbonyl)-thiazole-4-carboxylic acid methyl ester]
- TGD (Tumor Growth Delay) (20 mg/kg b.w. i.p. once daily, at a tumor volume of 1,000 mm^3): 8 days
- TGI (Tumor Growth Inhibition) (20 mg/kg b.w. i.p. once daily, day 28): 64%
- toxic response judged from body weight changes of tumor-bearing mice (0.1-40 mg/kg b.w. i.p. every 12 hr for 28 days): did not seem to provoke significant toxic response
- TGI (Tumor Growth Inhibition) (ITE 0.1 mg/kg b.w. i.p. every 12 hr for 28 days, DMSO, day 28): 74%
- TGI (Tumor Growth Inhibition) (ITE 1 mg/kg b.w. i.p. every 12 hr for 28 days, day 28): 52%
- TGD (Tumor Growth Delay) (ITE 1 mg/kg b.w. i.p. every 12 hr, at a tumor size of 600 mm^3): 3 days
- TGI (Tumor Growth Inhibition) (ITE 10 mg/kg b.w. i.p. every 12 hr for 28 days, day 28): 31%
- TGD (Tumor Growth Delay) (ITE 10 mg/kg b.w. i.p. every 12 hr, at a tumor size of 600 mm^3): 10 days
- TGI (Tumor Growth Inhibition) (ITE 20 mg/kg b.w. i.p. every 12 hr for 28 days, day 28): 26%
- TGD (Tumor Growth Delay) (ITE 20 mg/kg b.w. i.p. every 12 hr, at a tumor size of 600 mm^3): 12 days
- TGI (Tumor Growth Inhibition) (ITE 40 mg/kg b.w. i.p. every 12 hr for 28 days, day 28): 22%
- TGD (Tumor Growth Delay) (ITE 40 mg/kg b.w. i.p. every 12 hr, at a tumor size of 600 mm^3): 16 days
- TGI (Tumor Growth Inhibition) (ITE 80 mg/kg p.o. daily, day 24): 46%
- TGI (Tumor Growth Inhibition) (ITE 80 mg/kg twice daily i.p., day 28): 12%
- TGI (Tumor Growth Inhibition) (ITE 80 mg/kg twice daily i.p., the last day): 16%
